The source of these data is patent US11161860B2, “Compound having effects of inhibiting phosphodiesterase 4, preparation method thereof and pharmaceutical use thereof” (Hefei Industrial Pharmaceutical Institute Co., Ltd., priority 2018, dated 2021).

Marks after values point to notes of the source that are not given here.

The target of one test is T1, PDE4A enzyme (Homo sapiens, UniProt P27815).
T1 construct: GST (N); host or cells: Sf9 insect cells (baculovirus)
Kind of test: Inhibition of the activity of PDE4A enzyme (fluorescence polarization, Transcreener AMP2/GMP2). The format is biochemical. As to conditions: 1 h, mean ± spread; for remaining activity at 0.01 µM: 0.01 μM compound; for remaining activity at 0.1 µM: 0.1 μM compound; for remaining activity at 1 µM: 1 μM compound. Here is the method:
The PDE4A enzyme expressed from baculovirus is labeled with N-terminal GST from Sf9 insect cells. A specified PDE4A enzyme and 1 mM cAMP are added to the newly prepared pH 7.5 Tris buffer, the enzyme solution is transferred into reaction wells, and the compound is sonicated in DMSO and then added to the enzyme solution for culturing for 10 minutes at room temperature; the substrate solution is poured into the reaction wells to initiate the reaction and cultured at room temperature for 1 hour, and a detection tracer (AMP2/GMP2 AlexaFluor 633 Tracer) and an antibody (Transcreener® AMP2/GMP2 Antibody) are added to stop the reaction for culturing for 90 minutes with gentle mixing. […]
(Polarisation of emitted light reports the rotation of a fluorescent probe.)

For test [1], the system named is DNCB-induced atopic dermatitis mice. Put plainly: DNCB-induced dermatitis mouse model, skin thickness. As to conditions: for reduction of the thickness of the dermis compared with Crisaborole / reduction of the thickness of the epidermis compared with Crisaborole / reduction of the thickness of the dermis compared with the compound Y5 / reduction of the thickness of the epidermis compared with the compound Y5: 50 mg/mL topical; for reduction of the thickness of the dermis compared with Crisaborole / reduction of the thickness of the epidermis compared with Crisaborole: statistical comparison vs Crisaborole group; for reduction of the thickness of the dermis compared with the compound Y5 / reduction of the thickness of the epidermis compared with the compound Y5: statistical comparison vs Y5 group; for Epidermal thickness / Dermis thickness: 50 mg/mL, 100 μL applied to back skin, 11 times once a day, Mean ± SD, n = 8; for Epidermal thickness: model 137.76, blank 48.93; for Dermis thickness: model 500.71, blank 194.70; for reduction of the thicknesses of the epidermal layer and dermal layer: vs model group, P<0.01. It counts as in vivo, female BALB/C mice. As for the experimental part:
After female BALB/C mice are selected, each weighing 18-22 g, for animal adaptive breeding for 7 days, these are randomly divided into a blank group, a model group, a positive drug Crisaborole group, a hexadecadrol group, and compound groups, with 8 in each group. Except for the mice in the blank group, the remaining mice are applied with 100 μL of a 1% DNCB solution [acetone: olive oil=4:1 (V/V)] on the skin of the back of the shaved mice, and applied continuously for 3 days once a day. Then, dosing treatment starts 4 days after the mice are housed, and the test drug is applied to the back of each group of animals, wherein animals in the blank group and the model group are applied with a corresponding solvent, the positive drug Crisaborole group and hexadecadrol group are applied with 50 mg/mL of a corresponding drug, and the administration group is applied with 50 mg/mL of a corresponding compound, with 100 μL for each mouse; after application of 4 hours, 0.5% DNCB solution is applied for secondary challenge, and repeated administration and challenge treatment are performed 11 times, once a day. 24 hours after the last administration, the animals are sacrificed, and the back skins (1×0.4 cm^2) are taken and fixed in 10% formalin buffer to make pathological sections and perform HE staining; then, the epidermal and dermal layers are observed under a 100× […], and 5 areas are selected for detection of and recording the skin thickness, and then the average value is taken to represent the final thicknesses of the epidermal layer and dermal layer, respectively.

T1 sequence (P27815 whole entry, species assumed): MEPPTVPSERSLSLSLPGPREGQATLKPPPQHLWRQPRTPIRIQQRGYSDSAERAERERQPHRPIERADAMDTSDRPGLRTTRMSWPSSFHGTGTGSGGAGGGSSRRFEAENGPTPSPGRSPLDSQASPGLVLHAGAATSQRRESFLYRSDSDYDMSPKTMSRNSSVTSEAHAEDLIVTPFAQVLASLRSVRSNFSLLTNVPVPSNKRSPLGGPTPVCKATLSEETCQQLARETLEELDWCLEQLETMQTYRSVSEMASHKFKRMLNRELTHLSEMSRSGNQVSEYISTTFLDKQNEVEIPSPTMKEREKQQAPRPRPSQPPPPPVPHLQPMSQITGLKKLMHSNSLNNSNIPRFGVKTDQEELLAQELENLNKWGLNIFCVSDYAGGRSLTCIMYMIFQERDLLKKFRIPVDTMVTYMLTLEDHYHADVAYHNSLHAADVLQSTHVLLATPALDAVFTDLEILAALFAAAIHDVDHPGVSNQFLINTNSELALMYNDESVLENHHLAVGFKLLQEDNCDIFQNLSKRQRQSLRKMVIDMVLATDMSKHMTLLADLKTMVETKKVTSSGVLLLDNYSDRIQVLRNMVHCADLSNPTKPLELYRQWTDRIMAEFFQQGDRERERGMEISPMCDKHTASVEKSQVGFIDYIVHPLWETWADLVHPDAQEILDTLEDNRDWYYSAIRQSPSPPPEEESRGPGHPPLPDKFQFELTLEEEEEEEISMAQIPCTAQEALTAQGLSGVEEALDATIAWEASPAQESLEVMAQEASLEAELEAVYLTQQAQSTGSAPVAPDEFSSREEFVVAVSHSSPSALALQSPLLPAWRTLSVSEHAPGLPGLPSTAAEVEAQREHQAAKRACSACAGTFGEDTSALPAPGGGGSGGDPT

What is called remaining activity is the share of the control activity or signal that is left under treatment. Read a low remaining activity as little activity left. Consider `COC(=O)c1cccc2nc(Oc3ccc4c(c3)COB4O)ccc12` [PD-1], for which, at PDE4A enzyme, the remaining activity at 0.01 µM was determined as 18.8 ± 3.23%, the remaining activity at 0.1 µM was determined as 5.45 ± 1.06% and the remaining activity at 1 µM came out at 3.74 ± 0.71%. For the same compound, in test [1], the “reduction of the thickness of the dermis compared with Crisaborole” value is listed as “significantly reduce the thickness of the dermis of dermatitis mice (P≤0.01)”, the “reduction of the thickness of the epidermis compared with Crisaborole” value is “significantly reduce the thickness of the epidermis (P≤0.01)”, the “reduction of the thickness of the dermis compared with the compound Y5” value is “significantly reduce the thickness of the dermis of dermatitis mice (P≤0.05)” and the “reduction of the thickness of the epidermis compared with the compound Y5” value was “significantly reduce the thickness of the epidermis (P≤0.01)”. In test [1], this compound came in with an Epidermal thickness of 75.64 ± 7.86 aa μm and a Dermis thickness of 385.26 ± 20.17 a μm.

Turning to `OB1OCc2cc(Oc3ccc4c(C(F)(F)F)cc(Cl)cc4n3)ccc21` [PD-8], at PDE4A enzyme, the remaining activity at 0.01 µM worked out at 4.36 ± 0.59%, the remaining activity at 0.1 µM was found to be 2.25 ± 1.19% and the remaining activity at 1 µM was 1.21 ± 0.17%. Also, in test [1], the “reduction of the thickness of the dermis compared with Crisaborole” value is “significantly reduce the thickness of the dermis of dermatitis mice (P≤0.01)”, the “reduction of the thickness of the epidermis compared with Crisaborole” value is listed as “significantly reduce the thickness of the epidermis (P≤0.01)”, the “reduction of the thickness of the dermis compared with the compound Y5” value is recorded as “significantly reduce the thickness of the dermis of dermatitis mice (P≤0.05)” and the “reduction of the thickness of the epidermis compared with the compound Y5” value is recorded as “significantly reduce the thickness of the epidermis (P≤0.01)”. Also, in test [1], the Epidermal thickness is given as 76.58 ± 8.79**^##aa μm and the Dermis thickness is 385.17 ± 28.85 ^a μm.

In the case of `CC(=O)c1ccc2nc(Oc3ccc4c(c3)COB4O)ccc2c1` [PD-14], at PDE4A enzyme, the remaining activity at 0.01 µM is 3.57 ± 1.08%, the remaining activity at 0.1 µM is 1.26 ± 1.17% and the remaining activity at 1 µM was found to be 0.15 ± 0.1%. Further, in test [1], the “reduction of the thickness of the dermis compared with Crisaborole” value is given as “significantly reduce the thickness of the dermis of dermatitis mice (P≤0.01)”, the “reduction of the thickness of the epidermis compared with Crisaborole” value was “significantly reduce the thickness of the epidermis (P≤0.01)”, the “reduction of the thickness of the dermis compared with the compound Y5” value is recorded as “significantly reduce the thickness of the dermis of dermatitis mice (P≤0.01)” and the “reduction of the thickness of the epidermis compared with the compound Y5” value is on record as “significantly reduce the thickness of the epidermis (P≤0.01)”. Moreover, in test [1], the Epidermal thickness is given as 75.24 ± 7.98 aa μm and the Dermis thickness was 365.40 ± 21.95 ^a a μm.

On PDE4A enzyme, `COC(=O)c1ccc2nc(Cl)cc(Oc3ccc4c(c3)COB4O)c2c1` [PD-27] returned a remaining activity at 0.01 µM of 12.9 ± 1.86%, a remaining activity at 0.1 µM of 9.49 ± 1.59% and a remaining activity at 1 µM of 2.69 ± 1.77%. Also, in test [1], the Epidermal thickness was found to be 97.73 ± 8.95 μm and the Dermis thickness came out at 430.05 ± 27.90 μm.

Regarding `COC(=O)c1ccc2nc(Oc3ccc4c(c3)COB4O)cc(F)c2c1` [PD-20], at PDE4A enzyme, the remaining activity at 0.01 µM stood at 6.13 ± 0.93%, the remaining activity at 0.1 µM turned out to be 3.64 ± 0.48% and the remaining activity at 1 µM came to 1.78 ± 0.5%. In test [1], this compound returned an Epidermal thickness of 98.74 ± 10.55 μm and a Dermis thickness of 438.14 ± 29.71 μm.

On PDE4A enzyme, `N#Cc1cc2ccc(Oc3ccc4c(c3)COB4O)nc2cc1Cl` [PD-16] came in with a remaining activity at 0.01 µM of 1.05 ± 1.26%, a remaining activity at 0.1 µM of 0.45 ± 0.3% and a remaining activity at 1 µM of 0.21 ± 0.57%. In test [1], the “reduction of the thickness of the dermis compared with Crisaborole” value is listed as “significantly reduce the thickness of the dermis of dermatitis mice (P≤0.01)”, the “reduction of the thickness of the epidermis compared with Crisaborole” value is “significantly reduce the thickness of the epidermis (P≤0.01)”, the “reduction of the thickness of the dermis compared with the compound Y5” value is “significantly reduce the thickness of the dermis of dermatitis mice (P≤0.05)” and the “reduction of the thickness of the epidermis compared with the compound Y5” value is on record as “significantly reduce the thickness of the epidermis (P<0.05)”. In test [1], this compound displayed an Epidermal thickness of 78.64 ± 9.75 a μm and a Dermis thickness of 388.46 ± 24.06 a μm.

At PDE4A enzyme, `OB1OCc2cc(Oc3ccc(C(F)(F)F)cn3)ccc21` [Compound Y5, reference compound] returned a remaining activity at 0.01 µM of 61.3 ± 3.18%, a remaining activity at 0.1 µM of 15.3 ± 1.3% and a remaining activity at 1 µM of 5.56 ± 0.28%. For the same compound, in test [1], the “reduction of the thickness of the dermis compared with Crisaborole” value is recorded as “significantly reduce the thickness of the dermis of dermatitis mice (P≤0.01)”, the “reduction of the thickness of the epidermis compared with Crisaborole” value is given as “significantly reduce the thickness of the epidermis of the dermatitis mice (P≤0.05)”, the Epidermal thickness is on record as 90.14 ± 8.98 μm and the Dermis thickness was 415.08 ± 25.00 μm. Also, in test [1], the “reduction of the thicknesses of the epidermal layer and dermal layer” value was “significantly reduce the thicknesses of the epidermal layer and dermal layer”.

Take `N#Cc1ccc(Oc2ccc3c(c2)COB3O)cc1` [Crisaborole, reference compound]: at PDE4A enzyme, the remaining activity at 0.01 µM stood at 78 ± 5.02%, the remaining activity at 0.1 µM was found to be 35.2 ± 3.35% and the remaining activity at 1 µM amounted to 11 ± 0.52%. Further, in test [1], the Epidermal thickness is reported as 105.26 ± 11.35 μm; the Dermis thickness is on record as 455.14 ± 27.27 μm; the “reduction of the thicknesses of the epidermal layer and dermal layer” value was “significantly reduce the thicknesses of the epidermal layer and dermal layer”.

Turning to `N#Cc1ccc2cc(Oc3ccc4c(c3)COB4O)ccc2c1` [PD-25], at PDE4A enzyme, the remaining activity at 0.01 µM was determined as 7.17 ± 0.64%, the remaining activity at 0.1 µM is 1.95 ± 1.18% and the remaining activity at 1 µM turned out to be 2.27 ± 0.74%. For the same compound, in test [1], the “reduction of the thickness of the dermis compared with Crisaborole” value is “significantly reduce the thickness of the dermis of dermatitis mice (P≤0.05)”, the “reduction of the thickness of the epidermis compared with Crisaborole” value is on record as “significantly reduce the thickness of the epidermis of the dermatitis mice (P≤0.05)”, the Epidermal thickness is listed as 87.77 ± 10.58 μm and the Dermis thickness was 412.42 ± 26.74 μm.

On PDE4A enzyme, `COC(=O)c1ccc2nc(Oc3ccc4c(c3)COB4O)cc(C(F)(F)F)c2c1` [PD-18] gave a remaining activity at 0.01 µM of 1.52 ± 0.44%, a remaining activity at 0.1 µM of 0.46 ± 0.35% and a remaining activity at 1 µM of 0.13 ± 0.06%. Moreover, in test [1], the Epidermal thickness came out at 90.35 ± 11.20 μm and the Dermis thickness is on record as 436.16 ± 35.42 μm.

As to `OB1OCc2cc(Oc3ccc4cc(C(F)(F)F)c(Cl)cc4n3)ccc21` [PD-15], on PDE4A enzyme, the remaining activity at 0.01 µM was found to be 2.09 ± 0.99%, the remaining activity at 0.1 µM turned out to be 0.54 ± 0.5% and the remaining activity at 1 µM turned out to be 1.08 ± 0.4%. Besides, in test [1], the “reduction of the thickness of the dermis compared with Crisaborole” value was “significantly reduce the thickness of the dermis of dermatitis mice (P≤0.01)”, the “reduction of the thickness of the epidermis compared with Crisaborole” value was “significantly reduce the thickness of the epidermis (P≤0.01)”, the “reduction of the thickness of the dermis compared with the compound Y5” value is “significantly reduce the thickness of the dermis of dermatitis mice (P≤0.01)” and the “reduction of the thickness of the epidermis compared with the compound Y5” value is listed as “significantly reduce the thickness of the epidermis (P≤0.01)”. For the same compound, in test [1], the Epidermal thickness was 74.28 ± 8.26**^##aa μm and the Dermis thickness was 376.62 ± 23.73 ^a a μm.

Consider `NC(=O)c1cccc2nc(Oc3ccc4c(c3)COB4O)ccc12` [PD-11], for which, at PDE4A enzyme, the remaining activity at 0.01 µM was found to be 10.1 ± 1.93%, the remaining activity at 0.1 µM amounted to 5.85 ± 0.72% and the remaining activity at 1 µM was 1.7 ± 0.43%. In test [1], this compound showed an Epidermal thickness of 95.37 ± 8.75 μm and a Dermis thickness of 443.17 ± 33.40 μm.

With `CC(=O)c1cccc2nc(Oc3ccc4c(c3)COB4O)ccc12` [PD-12], at PDE4A enzyme, the remaining activity at 0.01 µM came to 22.1 ± 0.57%, the remaining activity at 0.1 µM turned out to be 6.2 ± 1.23% and the remaining activity at 1 µM was 3.46 ± 1.12%. Further, in test [1], the “reduction of the thickness of the dermis compared with Crisaborole” value is “significantly reduce the thickness of the dermis of dermatitis mice (P≤0.01)”, the “reduction of the thickness of the epidermis compared with Crisaborole” value was “significantly reduce the thickness of the epidermis (P≤0.01)”, the “reduction of the thickness of the dermis compared with the compound Y5” value was “significantly reduce the thickness of the dermis of dermatitis mice (P≤0.01)” and the “reduction of the thickness of the epidermis compared with the compound Y5” value is “significantly reduce the thickness of the epidermis (P≤0.01)”. Moreover, in test [1], the Epidermal thickness is 72.15 ± 8.57 aa μm and the Dermis thickness was 362.44 ± 25.78 ^a a μm.
